pIC50: −log10 of the molar value.
What was measured:
[1] = target: T1, Recombinant human LOXL3 (lysyl oxidase like 3) (Homo sapiens, UniProt P58215); assay: LOXL3 inhibition assay (fluorometric, cadaverine/Amplex Red/HRP); type: biochemical; settings: IC50 class; recombinant human LOXL3, cadaverine substrate; read-out: Activity Range LOXL3
T1 construct: purchased R&D systems
T1 sequence (P58215 26-753): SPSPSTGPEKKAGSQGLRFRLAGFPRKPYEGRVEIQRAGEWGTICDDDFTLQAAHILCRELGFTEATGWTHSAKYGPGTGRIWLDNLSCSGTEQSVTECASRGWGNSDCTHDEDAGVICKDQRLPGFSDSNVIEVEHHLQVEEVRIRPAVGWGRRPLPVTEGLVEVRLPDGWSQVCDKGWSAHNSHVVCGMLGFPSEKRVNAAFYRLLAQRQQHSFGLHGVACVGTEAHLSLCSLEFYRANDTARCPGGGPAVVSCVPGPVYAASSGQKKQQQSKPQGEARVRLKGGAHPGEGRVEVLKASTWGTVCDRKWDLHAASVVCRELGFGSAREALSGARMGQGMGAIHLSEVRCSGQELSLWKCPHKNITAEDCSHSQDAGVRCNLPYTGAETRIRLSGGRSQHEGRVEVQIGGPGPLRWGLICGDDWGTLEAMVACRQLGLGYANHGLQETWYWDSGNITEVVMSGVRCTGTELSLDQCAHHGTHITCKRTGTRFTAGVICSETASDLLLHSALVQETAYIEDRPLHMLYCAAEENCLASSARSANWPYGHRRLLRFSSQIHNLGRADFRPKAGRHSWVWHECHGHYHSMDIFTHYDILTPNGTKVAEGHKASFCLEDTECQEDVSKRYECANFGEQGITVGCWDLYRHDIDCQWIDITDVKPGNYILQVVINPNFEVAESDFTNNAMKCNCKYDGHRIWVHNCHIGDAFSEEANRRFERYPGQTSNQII
Description: The ability of compounds to inhibit one or more of the lysyl oxidases LOXL2 and/or LOXL3 was determined using a fluorometric assay. This assay measures the activity of lysyl oxidases by coupling the reaction with horseradish peroxidase-catalyzed […]. The activity assay protocol uses cadaverine as substrate that releases hydrogen peroxide upon transformation by the specific LOX family enzyme present in the sample. Hydrogen peroxide is in turn detected using a red fluorescence substrate for HRP-coupled reactions (Amplex Red Enzyme Assays, Thermo Scientific Fisher). This leads to increase in fluorescence that can be easily detected at Ex/Em=540/590 nm in a fluorescence microplate reader.
Enzymes: Recombinant human LOXL2 (lysyl oxidase like 2) and recombinant human LOXL3 (lysyl oxidase like 3) were purchased from R&D systems and assays were performed in 1.2 M urea, 50 mM sodium borate buffer pH 8.0, and 10 mM CaCl.
Reaction: Final concentration in the LOXL2 and LOXL3 assays were as following and performed in a total volume of […]:
Experimental procedure: 5 μl of freshly prepared reaction buffer were delivered to reaction wells. Compounds were resuspended in 100% DMSO at 10 mM and delivered into buffer using acoustic technology (Echo550; nanoliter range). A 3× solution of LOXL2 or LOXL3 in reaction buffer was prepared (“enzyme solution”) and 5 μL of enzyme solution was added into the reaction wells. Buffer only was added to column 1 for no protein control. Reactions were incubated for 30 minutes at 37° C. A 3×mixture of cadaverine, Amplex Red, and HRP (“Substrate/Detection Mix) was prepared and subsequently 5 μL of the mixture added to each reaction well. Progress of reactions was monitored for 60 minutes at 37° C. using Clariostar plate reader (ex 530-12, ems 600-40). For all activity assays, pan-LOX inhibitor CCT365623 (Tang et al, 2017) and LOXL2/LOXL3 inhibitor PAT-1251 (PharmaKea) were included as standards.
Data analysis: Slope of the linear portion of the progress curve was calculated using Clariostar software. Typical analysis interval was between 8-30 min, but varied between experiments. The background subtracted signals (No protein wells are considered as background) were converted to % activity relative to DMSO controls. Data was analyzed using GraphPad Prism 4 with “sigmoidal dose-response (variable slope)”; 4 parameters with Hill Slope. Constraints: Bottom=Constant equal to 0. Top=Must be less than 120.

[2] = target: T2, Recombinant human LOXL2 (lysyl oxidase like 2) (Homo sapiens, UniProt Q9Y4K0); assay: LOXL2 inhibition assay (fluorometric, cadaverine/Amplex Red/HRP); type: biochemical; settings: IC50 class; recombinant human LOXL2, cadaverine substrate; read-out: Activity Range LOXL2
T2 construct: purchased R&D systems
T2 sequence (Q9Y4K0 26-774): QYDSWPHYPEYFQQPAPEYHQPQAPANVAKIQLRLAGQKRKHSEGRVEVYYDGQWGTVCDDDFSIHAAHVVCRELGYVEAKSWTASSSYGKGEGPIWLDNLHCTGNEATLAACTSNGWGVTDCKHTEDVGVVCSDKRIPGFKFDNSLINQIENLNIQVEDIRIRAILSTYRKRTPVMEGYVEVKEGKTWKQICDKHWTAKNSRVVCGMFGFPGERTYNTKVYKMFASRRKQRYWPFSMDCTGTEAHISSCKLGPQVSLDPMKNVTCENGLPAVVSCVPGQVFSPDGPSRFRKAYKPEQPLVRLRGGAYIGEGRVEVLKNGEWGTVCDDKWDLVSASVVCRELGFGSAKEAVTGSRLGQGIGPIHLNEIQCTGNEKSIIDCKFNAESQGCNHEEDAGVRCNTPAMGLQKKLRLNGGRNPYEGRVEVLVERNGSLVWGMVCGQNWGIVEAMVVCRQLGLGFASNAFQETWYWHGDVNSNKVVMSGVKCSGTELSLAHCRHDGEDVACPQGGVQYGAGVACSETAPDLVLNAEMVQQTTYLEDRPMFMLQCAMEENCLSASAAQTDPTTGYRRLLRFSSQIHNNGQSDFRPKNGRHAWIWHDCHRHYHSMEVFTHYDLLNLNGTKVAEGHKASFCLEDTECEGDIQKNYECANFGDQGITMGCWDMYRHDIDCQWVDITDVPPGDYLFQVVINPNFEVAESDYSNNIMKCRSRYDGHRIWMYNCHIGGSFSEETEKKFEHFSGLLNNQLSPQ
Summary of the method: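 Both enzymes assayed in 1.2 M urea, 50 mM sodium borate pH 8.0, 10 mM CaCl, with 30 min compound–enzyme preincubation at 37° C before cadaverine/Amplex Red/HRP addition. Fluorescence followed 60 min at 37° C; linear-slope rates, background-subtracted, as % of DMSO control, fitted by 4-parameter variable-slope curve (bottom fixed at 0).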

[3] = Microsome stability study; type: in vitro ADME, mouse; settings: for half-life at 2 μM / microsomal CLint at 2 μM / CLint scaled at 2 μM: CD-1, pH 7.4; for half-life at 2 μM / microsomal CLint at 2 μM: male mouse liver microsomes 0.5 mg/mL, NADPH; for CLint scaled at 2 μM: male, read-out: Scaled-up CLint; for CLint scaled at 2 μM / Predicted hepatic CL: mouse liver microsomes
Description: Pooled CD-1 mouse liver microsomes at 0.5 mg/mL were pre-incubated in phosphate buffer (100 mM, pH 7.4) containing 1 mM NADPH and 3 mM MgCl2 in a 96-well plate for 5 minutes at 37° C. Ultra-pure water was added instead of NADPH in the negative control group to exclude the misleading factor that resulted from instability of chemical itself. The reaction was initiated by adding test compound at the final concentration of 2 μM and incubated at 37° C. Aliquots were taken from the incubation at 0, 15, 30, 45 and 60 minutes followed by the addition of 4 volume of cold acetonitrile containing internal standards. Samples were centrifuged and supernatant was used for LC-MS/MS analysis.

| pIC50 [1] | pIC50 [2] | half-life at 2 μM [3] [h] | microsomal CLint at 2 μM [3] [µL/min/mg] | CLint scaled at 2 μM [3] [mL/min/kg] | Predicted hepatic CL [3] [mL/min/kg] | SMILES |
| --- | --- | --- | --- | --- | --- | --- |
| 4.52 to 6.00 | ≥ 6.30 | 4.49 | 5.14 | 22.5 | 18.00 | CS(=O)(=O)[C@H]1C[C@@H](S(=O)(=O)c2cccc(CN)c2)CN(c2ccccc2)C1 (racemic) [Example 23, cis-(3-((-5-(Methylsulfonyl)-1-phenylpiperidin-3-yl)sulfonyl)phenyl)methanamine] |
| 4.52 to 6.00 | ≥ 6.30 | 1.89 | 12.2 | 53.6 | 33.58 | CN(C)C(=O)N1C[C@@H](c2ccccc2)C[C@@H](S(=O)(=O)c2cccc(CN)c2)C1.O=C(O)C(F)(F)F (racemic) [Example 74, cis-3-((3-(Aminomethyl)phenyl)sulfonyl)-N,N-dimethyl-5-phenylpiperidine-1-carboxamide 2,2,2-trifluoroacetate] |
| 6.00 to 6.30 | ≥ 6.30 |  |  |  |  | NCc1ccnc(S(=O)(=O)N2C[C@@H](C(=O)N3CCOCC3)C[C@@H](C3CCCCC3)C2)c1 (racemic) [Example 145, cis-(1-((4-(Aminomethyl)pyridin-2-yl)sulfonyl)-5-cyclohexylpiperidin-3-yl)(morpholino)methanone 2,2,2-trifluoroacetate] |
| ≥ 6.30 | ≥ 6.30 | 0.533 | 43.3 | 190 | 61.03 | NCc1ccnc(S(=O)(=O)N2C[C@@H](C(=O)N3CCS(=O)(=O)CC3)C[C@@H](C3CCCCC3)C2)c1.O=C(O)C(F)(F)F (racemic) [Example 146, cis-(1-((4-(Aminomethyl)pyridin-2-yl)sulfonyl)-5-cyclohexylpiperidin-3-yl)(1,1-dioxidothiomorpholino)methanone 2,2,2-trifluoroacetate] |
| ≥ 6.30 | ≥ 6.30 |  |  |  |  | NCc1ccnc(S(=O)(=O)N2C[C@@H](C(=O)N3CCOCC3)C[C@@H](c3ccccc3)C2)c1 (relative stereo) [Example 133, cis-(1-((4-(Aminomethyl)pyridin-2-yl)sulfonyl)-5-phenylpiperidin-3-yl)(morpholino)methanone 2,2,2-trifluoroacetate] |
| 4.52 to 6.00 | ≥ 6.30 |  |  |  |  | CN(C)C(=O)[C@H]1C[C@@H](C2CCCCC2)CN(S(=O)(=O)c2cccc(CN)c2)C1 (relative stereo) [Example 138, cis-1-((3-(Aminomethyl)phenyl)sulfonyl)-5-cyclohexyl-N,N-dimethylpiperidine-3-carboxamide 2,2,2-trifluoroacetate] |
| 6.00 to 6.30 | ≥ 6.30 |  |  |  |  | NCc1ccnc(S(=O)(=O)N2C[C@@H](C(=O)N3CCOCC3)C[C@@H](c3ccccc3)C2)c1 [Example 133A, ((3S,5S)-1-((4-(aminomethyl)pyridin-2-yl)sulfonyl)-5-phenylpiperidin-3-yl)(morpholino)methanone 2,2,2-trifluoroacetate] |
| ≥ 6.30 | ≥ 6.30 |  |  |  |  | NCc1ccnc(S(=O)(=O)N2C[C@H](C(=O)N3CCOCC3)C[C@H](c3ccccc3)C2)c1 [Example 133B, ((3R,5R)-1-((4-(aminomethyl)pyridin-2-yl)sulfonyl)-5-phenylpiperidin-3-yl)(morpholino)methanone 2,2,2-trifluoroacetate] |
